Key:
dendritic cells = experiment: Microarray expression analysis during differentiation and maturation of dendritic cells; format: cell-based, human; conditions: maturation of dendritic cells induced by TNF-alpha, versus immature dendritic cells (Lci)
Method: Human CD34 positive precursor cells were isolated by positive immunomagnetic selection from the leukapheresis of normal volunteer donors who had undergone G-CSF-induced stem cell mobilization. The purified CD34+ cells were cultured in vitro for 10 days in the presence of recombinant GM-CSF, Stem Cell Factor, TNF-alpha, TGF-beta1, and Flt3-Ligand. The resulting expanded cell population was enriched for cell cluster-forming immature dendritic cells (Lci) by sedimentation over a 7.5% BSA column at 1 g for 30 min. Immature dendritic cells were cultured for two additional days in the presence of the same combination of cytokines supplemented with LPS, IL-1beta, TNF-alpha, or double strand RNA. In addition, cluster-forming immature dendritic cells were disrupted by vigorous pipetting and cultured for two additional days in the presence of the same combination of cytokines without addition of any additional factor. The partially mature dendritic cells derived by mechanical disruption of cell clusters are characterized by the presence of intracellular rod-shaped structures called Birbeck's Granules. The dendritic cell population produced using this method was called Birbeck's Granule-positive dendritic cells, or BG. […]

endothelial cell lines = experiment: Microarray expression analysis of endothelial cell lines treated with TNF-α; format: cell-based, human; conditions: 10 ng/ml TNF-α, within four hours; in five out of the eight endothelial cell lines
[1] = system: bovine aortic endothelial cells; conditions: confluent cells; cited from earlier work
[2] = system: human umbilical vein endothelial cells (HVECs); conditions: TNF-α treated compared with untreated cells; cited from earlier work
[3] = system: vascular smooth muscle cells (SMCs); conditions: cited from earlier work
[4] = system: human fibroblastic IMR-90 cells; conditions: cited from earlier work
[5] = intranasal; greater than those produced by hydrocortisone; cited from earlier work

| Molecule | expression of SEQ ID NO:96 (dendritic cells) | expression of SEQ ID NO:58 (endothelial cell lines) | suppression of [3H]proline incorporation [1] | increase of cellular secretions of MCP-1 [2] [fold] | relative proportion of collagen types IV and V [3] | incorporation of [3H]proline into collagenase-digestible proteins (CDP) and noncollagenous proteins (NCP) ([3]; confluent cultures) | suppression of [3H]proline incorporation [4] | anti-inflammatory and vasoconstrictive effects relative to hydrocortisone [5] [times] |
| --- | --- | --- | --- | --- | --- | --- | --- | --- |
| TNF-α | greater than two-fold expression | downregulated by at least two-fold | not observed | 119 | decreases | suppresses | not observed |  |
| C[C@H]1C[C@H]2[C@@H]3CCC4=CC(=O)C=C[C@]4(C)[C@@]3(Cl)[C@@H](O)C[C@]2(C)[C@@]1(O)C(=O)CO [beclomethasone, Beclomethasone] |  |  |  |  |  |  |  | 5000 |
